Values of other authors in US20020128313A1, “Method for improved pregnancy management and related composition” (priority 2000, published 2002).

System: sows
[1] = 5 mg in extended boar sperm (Gil et al., 1998)

## CCCCC[C@H](O)/C=C/[C@@H]1[C@@H](C/C=C\CCCC(=O)O)[C@@H](O)C[C@H]1O [PGF2α, Prostaglandin F2α]
[1]
  Likelihood of a sow to become pregnant: increased the likelihood of a sow to become pregnant
  Number of piglets born alive: increased number of piglets born alive
Pena et al., 1998
  Effect on seasonal infertility in sows: helped alleviate the effect of seasonal infertility
